Measurements: ChEMBL document CHEMBL1137971, “Potent small molecule CCR1 antagonists” (Bioorg Med Chem Lett, 2004)

Columns and labels:
[1] = molecular target: T1, C-C chemokine receptor type 1 (Homo sapiens, UniProt P32246); test: Inhibition of CCL3 binding to C-C chemokine receptor type 1
T1 sequence (P32246 whole entry): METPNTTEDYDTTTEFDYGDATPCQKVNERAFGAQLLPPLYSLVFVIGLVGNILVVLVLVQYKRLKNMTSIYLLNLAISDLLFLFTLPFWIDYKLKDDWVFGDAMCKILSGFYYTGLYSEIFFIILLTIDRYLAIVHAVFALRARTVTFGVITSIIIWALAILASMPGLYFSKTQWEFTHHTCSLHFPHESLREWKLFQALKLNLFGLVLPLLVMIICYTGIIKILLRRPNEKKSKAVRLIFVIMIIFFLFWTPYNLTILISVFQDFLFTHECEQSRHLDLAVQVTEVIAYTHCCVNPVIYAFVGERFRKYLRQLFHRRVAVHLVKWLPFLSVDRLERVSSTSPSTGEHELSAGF

[2] = test system: THP-1; test: Inhibition of CCL3 induced chemotaxis in THP-1 cells; format: functional, cell-based; settings: Homo sapiens
[3] = test system: THP-1; test: Inhibition of CCL3 induced chemotaxis in THP-1 cells; Not active; format: functional, cell-based, Homo sapiens
[4] = organism: Homo sapiens; test: Compound inhibits CCL3 induced CD11b up-regulation on monocytes in human whole blood; format: functional, organism-based

Question: Which results are given for NC(=O)[C@@H](C[C@H](O)[C@H](Cc1ccccc1)NC(=O)c1cnc2ccccc2n1)C1CCCC1?
Answer: IC50 [1]: 26 nM; IC50 [2]: 28 nM

Question: What does the source list for CNC(=O)[C@H](CC(C)C)C[C@H](O)[C@H](Cc1ccccc1)NC(=O)c1cnccn1?
Answer: IC50 [1]: > 32000 nM; IC50 [2]: > 25000 nM

Question: With CNC(=O)[C@H](CC(C)C)C[C@H](O)[C@H](Cc1ccccc1)NC(=O)c1cc2ccccc2nc1O as the compound, how does the IC50 [1] read?
Answer: The IC50 was 16700 nM.

Question: What about the IC50 [2] of the same compound?
Answer: The IC50 was > 25000 nM.

Question: With CNC(=O)[C@H](CC(C)C)C[C@H](O)[C@H](Cc1ccccc1)NC(=O)c1ccc2ccccc2n1 as the compound, how does the IC50 [1] read?
Answer: Its IC50 is 130 nM.

Question: What about the IC50 [2] of the same compound?
Answer: Its IC50 is 890 nM.

Question: How did the IC50 [1] turn out when NC(=O)[C@@H](C[C@H](O)[C@H](Cc1ccccc1)NC(=O)c1cnc2ccccc2n1)C1CCCCC1 was run?
Answer: Its IC50 is 8 nM.

Question: And the IC50 [2]?
Answer: The IC50 was 5 nM.

Question: Which results are given for NC(=O)[C@H](CC1CCCC1)C[C@H](O)[C@H](Cc1ccccc1)NC(=O)c1cnc2ccccc2n1?
Answer: IC50 [1]: 48 nM; IC50 [2]: 12 nM

Question: How did the IC50 [1] turn out when CNC(=O)[C@H](CC(C)C)C[C@H](O)[C@H](Cc1ccccc1)NC(=O)c1ccnc2ccccc12 was run?
Answer: Its IC50 is 18500 nM.

Question: What about the IC50 [2] of the same compound?
Answer: The IC50 was 4300 nM.

Question: With CNC(=O)[C@H](CC(C)C)C[C@H](O)[C@H](Cc1ccccc1)NC(=O)c1nccc2ccccc12 as the compound, how does the IC50 [1] read?
Answer: The IC50 was 580 nM.

Question: What about the IC50 [2] of the same compound?
Answer: The IC50 was 2400 nM.

Question: What does the source list for CC1CC([C@H](C[C@H](O)[C@H](Cc2ccccc2)NC(=O)c2cnc3ccccc3n2)C(N)=O)CC(C)O1 (stereo not given in full)?
Answer: IC50 [1]: 15 nM; IC50 [2]: 5 nM

Question: With NC(=O)[C@@H](C[C@H](O)[C@H](Cc1ccccc1)NC(=O)c1cnc2ccccc2n1)C1CCOCC1 as the compound, how does the IC50 [1] read?
Answer: Its IC50 is 3500 nM.

Question: What about the IC50 [2] of the same compound?
Answer: Its IC50 is 12500 nM.

Question: Which IC50 [1] does the source give for CC(C)CCC[C@H](C[C@H](O)[C@H](Cc1ccccc1)NC(=O)c1cnc2ccccc2n1)C(N)=O here?
Answer: Its IC50 is 420 nM.

Question: And the IC50 [2]?
Answer: The IC50 was 69 nM.

Question: CC1(C)CC([C@H](C[C@H](O)[C@H](Cc2ccccc2)NC(=O)c2cnc3ccccc3n2)C(N)=O)CC(C)(C)C1 was tested. Which IC50 [1] did it give?
Answer: Its IC50 is 44800 nM.

Question: And the IC50 [2]?
Answer: Its IC50 is 4600 nM.

Question: How did the IC50 [1] turn out when CNC(=O)[C@H](CC(C)C)C[C@H](O)[C@H](Cc1ccc(O)cc1)NC(=O)c1cnc2ccccc2n1 was run?
Answer: The IC50 was 610 nM.

Question: And the IC50 [2]?
Answer: The IC50 was 1300 nM.

Question: What does the source list for CNC(=O)[C@H](CC(C)C)C[C@H](O)[C@H](Cc1ccccc1)NC(=O)c1cncc2ccccc12?
Answer: IC50 [1]: 5150 nM; IC50 [2]: 6600 nM

Question: What does the source list for CNC(=O)[C@H](CC(C)C)C[C@H](O)[C@H](Cc1ccccc1)NC(=O)c1cnc2ccccc2n1?
Answer: IC50 [1]: 64 nM; IC50 [2]: 64 nM

Question: With CNC(=O)[C@H](CC(C)C)C[C@H](O)[C@H](Cc1ccccc1)NC(=O)c1cccc2cccnc12 as the compound, how does the IC50 [1] read?
Answer: Its IC50 is > 32000 nM.

Question: And the IC50 [2]?
Answer: Its IC50 is > 25000 nM.

Question: How did the IC50 [2] turn out when CNC(=O)[C@H](CC(C)C)C[C@H](O)[C@H](Cc1ccccc1)NC(=O)c1cnc2ccccc2c1 was run?
Answer: The IC50 was 460 nM.

Question: How did the IC50 [1] turn out when CNC(=O)[C@H](CC(C)C)C[C@H](O)[C@H](Cc1ccccc1)NC(=O)c1cncc(Br)c1 was run?
Answer: The IC50 was 510 nM.

Question: And the IC50 [3]?
Answer: Its IC50 is “Not Active”.

Question: CN(C)CC[C@H](C[C@H](O)[C@H](Cc1ccccc1)NC(=O)c1cnc2ccccc2n1)C(N)=O was tested. Which IC50 [1] did it give?
Answer: The IC50 was 55100 nM.

Question: What about the IC50 [2] of the same compound?
Answer: Its IC50 is > 25000 nM.

Question: For CNC(=O)[C@H](CC(C)C)C[C@H](O)[C@H](CC1CCCCC1)NC(=O)c1cnc2ccccc2n1, which IC50 [1] is on record?
Answer: Its IC50 is 670 nM.

Question: And the IC50 [2]?
Answer: Its IC50 is 560 nM.

Question: How did the IC50 [1] turn out when CNC(=O)[C@H](CC(C)C)C[C@H](O)[C@H](Cc1ccccc1)NC(=O)c1cccnc1 was run?
Answer: The IC50 was > 32000 nM.

Question: What about the IC50 [2] of the same compound?
Answer: The IC50 was > 25000 nM.

Question: Which IC50 [1] does the source give for CC(C)CC[C@H](C[C@H](O)[C@H](Cc1ccccc1)NC(=O)c1cnc2ccccc2n1)C(N)=O here?
Answer: Its IC50 is 28 nM.

Question: And the IC50 [2]?
Answer: Its IC50 is 2 nM.

Question: With NC(=O)[C@H](Cc1ccccc1)C[C@H](O)[C@H](Cc1ccccc1)NC(=O)c1cnc2ccccc2n1 as the compound, how does the IC50 [1] read?
Answer: The IC50 was 280 nM.

Question: And the IC50 [2]?
Answer: The IC50 was 120 nM.

Question: What does the source list for CNC(=O)[C@H](CC(C)C)C[C@H](O)[C@H](Cc1ccc(Cl)c(Cl)c1)NC(=O)c1cnc2ccccc2n1?
Answer: IC50 [1]: 160 nM; IC50 [2]: 150 nM

Question: CNC(=O)[C@H](CCC(C)C)C[C@H](O)[C@H](Cc1ccccc1)NC(=O)c1cnc2ccccc2n1 was tested. Which IC50 [1] did it give?
Answer: The IC50 was 22 nM.

Question: And the IC50 [2]?
Answer: The IC50 was 8 nM.

Question: With CNC(=O)[C@H](CC(C)C)C[C@H](O)[C@H](Cc1ccc(OC)cc1)NC(=O)c1cnc2ccccc2n1 as the compound, how does the IC50 [1] read?
Answer: Its IC50 is 2900 nM.

Question: What about the IC50 [2] of the same compound?
Answer: Its IC50 is 2000 nM.

Question: NC(=O)[C@H](CCO)C[C@H](O)[C@H](Cc1ccccc1)NC(=O)c1cnc2ccccc2n1 was tested. Which IC50 [1] did it give?
Answer: The IC50 was 4600 nM.

Question: And the IC50 [2]?
Answer: The IC50 was > 25000 nM.

Question: Which IC50 [1] does the source give for CNC(=O)[C@H](CC(C)C)C[C@H](O)[C@H](Cc1ccccc1)NC(=O)c1cnnc2ccccc12 here?
Answer: The IC50 was 2570 nM.

Question: What about the IC50 [2] of the same compound?
Answer: Its IC50 is 1100 nM.

Question: Which IC50 [1] does the source give for CC[C@H](C)[C@H](NC(=O)c1cnc2ccccc2n1)[C@@H](O)C[C@@H](CC(C)C)C(=O)NC here?
Answer: The IC50 was 4200 nM.

Question: And the IC50 [3]?
Answer: The IC50 was “Not Active”.

Question: Which results are given for CNC(=O)[C@H](CC(C)C)C[C@H](O)[C@H](Cc1ccccc1)NC(=O)c1ccc2ccccc2c1?
Answer: IC50 [1]: 10300 nM; IC50 [2]: > 25000 nM

Question: How did the IC50 [4] turn out when CNC(=O)[C@H](CC(C)C)C[C@H](O)[C@H](CC1CCCCC1)NC(=O)c1cnc2ccccc2c1 was run?
Answer: The IC50 was ~5000 nM.

Question: What about the IC50 [2] of the same compound?
Answer: The IC50 was 840 nM.

Question: CNC(=O)[C@H](CC(C)C)C[C@H](O)[C@H](Cc1ccc(F)cc1)NC(=O)c1cnc2ccccc2n1 was tested. Which IC50 [1] did it give?
Answer: The IC50 was 2600 nM.

Question: What about the IC50 [2] of the same compound?
Answer: The IC50 was 3000 nM.

Question: How did the IC50 [1] turn out when CNC(=O)[C@H](CC(C)C)C[C@H](O)[C@H](Cc1ccccc1)NC(=O)c1ccc2ncccc2c1 was run?
Answer: The IC50 was 2490 nM.

Question: And the IC50 [2]?
Answer: The IC50 was 3300 nM.
